# Test results from patent US20160206608A1 (Pfizer Inc., priority 2011, published 2016).
# Tests used:
# [1] = tested on: 3T3-ROS engineered tumor models (CD74-ROS, SLC34A2-ROS (L), SLC34A2-ROS (S), FIG-ROS (L), FIG-ROS (S)); test: Panel of ROS fusion engineered 3T3-ROS xenograft tumor models; settings: PO BID, all five models, nude mice
# [2] = tested on: HCC78 human NSCLC cells; test: Western blot of cleaved caspase-3 (apoptosis) in HCC78 cells; settings: 3-hour drug treatment
# [3] = tested on: SLC34A2-ROS dependent signaling (ROS, SHP2, STAT3, AKT, ERK1/2) in HCC78 cells; test: Immunoblot of ROS mediated signal transduction in HCC78 cells; settings: 3 hours of drug treatment
smiles,measurement,setting,value
"C[C@@H](Oc1cc(-c2cnn(C3CCNCC3)c2)cnc1N)c1c(Cl)ccc(F)c1Cl [crizotinib, 3-[(R)-1-(2,6-dichloro-3-fluoro-phenyl)-ethoxy]-5-(1-piperidin-4-yl-1H-pyrazol-4-yl)-pyridin-2-ylamine]",cytoreductive effect in 3T3-ROS engineered tumor models,[1],significant cytoreductive effects
same,induction of activated caspase-3 levels,[2],significant dose-dependent induction
same,"inhibition of ROS phosphorylation (activation loop) and downstream SHP2, STAT3, AKT and ERK1/2",[3],dose dependently inhibited
